These results are taken from PubChem BioAssay (NCI).

Among the test systems are BT-549 breast; NCI/ADR-RES ovarian; SNB-75 CNS; OVCAR-3 ovarian; UO-31 renal; SR leukemia; HL-60(TB) leukemia; SNB-19 CNS; A549 NSCLC; MDA-N; HOP-62 NSCLC; DU-145 prostate; HOP-92 NSCLC; CCRF-CEM leukemia; NCI-H460 lung; HT29 colon; MOLT-4 leukemia; SN12C renal; SF-295 CNS; RPMI-8226 leukemia.
What all share (assay): NCI anticancer screen, dose series, 48 h

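Cells were grown in 96-well plates and exposed to each compound for 48 hours at five concentrations; endpoints were interpolated linearly between bracketing concentrations, or set to the highest concentration if not reached. Definition used: TGI = concentration required for complete inhibition of growth.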 Some results are limits rather than exact numbers.

Take `COc1cc(C2=C(c3cc(OC)c4ccccc4c3OC)C(=O)c3ccccc3C2=O)c(OC)c2ccccc12`: the TGI in the test with BT-549 breast, in the test on NCI/ADR-RES ovarian, in the test on SNB-75 CNS, in the test on OVCAR-3 ovarian, in the test on UO-31 renal and with SR leukemia was over 100 µM each time. In addition, the TGI with HL-60(TB) leukemia, with SNB-19 CNS, in the test with A549 NSCLC, in the test on MDA-N, in the test on HOP-62 NSCLC and with DU-145 prostate was over 100 µM throughout. Further, the TGI with HOP-92 NSCLC, in the test on CCRF-CEM leukemia, in the test on NCI-H460 lung, with HT29 colon, in the test on MOLT-4 leukemia and in the test on SN12C renal was over 100 µM in each case. Besides, the TGI in the test on SF-295 CNS is over 100 µM.
Regarding `COc1ccc2nc3cc(Cl)ccc3c(NCCNC(=O)Cn3c(=O)n(C)c(=O)c4c3nc3c(c(=O)n(C)c(=O)n3C)[n+]4[O-])c2c1`, the TGI with RPMI-8226 leukemia is over 100 µM; in the test with BT-549 breast, 49.1 µM; in the test on NCI/ADR-RES ovarian, over 95.8 µM; in the test with SNB-75 CNS, 92.2 µM; in the test with OVCAR-3 ovarian, over 100 µM; in the test with UO-31 renal it was over 100 µM. Also, the TGI in the test on SR leukemia is 63.8 µM; in the test with HL-60(TB) leukemia it was over 100 µM; in the test on SNB-19 CNS it was over 77.9 µM; in the test with A549 NSCLC, over 100 µM; with MDA-N, over 100 µM; in the test on HOP-62 NSCLC, 50.8 µM. The TGI in the test with DU-145 prostate is over 100 µM; in the test with HOP-92 NSCLC, over 74.7 µM; in the test with CCRF-CEM leukemia it was over 100 µM; in the test on NCI-H460 lung it was over 100 µM; in the test with HT29 colon it was over 65.1 µM; in the test on MOLT-4 leukemia, over 90.8 µM. For the same compound, the TGI in the test on SN12C renal and with SF-295 CNS was over 100 µM each time.
Consider `CN1CCc2c3n(c4cc(Br)ccc24)[C@H](O)CCCC31` (stereo not given in full), for which the TGI was 5.36 µM with RPMI-8226 leukemia; over 10 µM in the test with BT-549 breast; over 10 µM in the test with NCI/ADR-RES ovarian; 5.83 µM in the test with SNB-75 CNS; over 10 µM with OVCAR-3 ovarian; over 10 µM in the test with UO-31 renal. The TGI in the test with SR leukemia is 4.05 µM; in the test on HL-60(TB) leukemia, 4.15 µM; in the test on SNB-19 CNS, over 10 µM; with A549 NSCLC, over 10 µM; in the test on MDA-N, 3.24 µM; with HOP-62 NSCLC, over 10 µM. The TGI in the test with DU-145 prostate is over 10 µM; with HOP-92 NSCLC, over 9.12 µM; in the test with CCRF-CEM leukemia it was 3.74 µM; with NCI-H460 lung, 2.97 µM; in the test with HT29 colon, 3.28 µM; in the test on MOLT-4 leukemia it was 3.97 µM. Also, the TGI is over 10 µM with SN12C renal and 3.53 µM in the test with SF-295 CNS.
`CN(C)CCCNC(=O)c1c(O)c2ccccc2[nH]c1=O`: the TGI in the test on RPMI-8226 leukemia was over 100 µM; with BT-549 breast, over 100 µM; in the test with NCI/ADR-RES ovarian, over 100 µM; in the test on SNB-75 CNS, over 100 µM; with OVCAR-3 ovarian, over 100 µM; in the test with UO-31 renal, 58.6 µM. The TGI in the test on SR leukemia, in the test on HL-60(TB) leukemia, in the test on A549 NSCLC, in the test with MDA-N, in the test on HOP-62 NSCLC and in the test on DU-145 prostate was over 100 µM throughout. The TGI with HOP-92 NSCLC, in the test with CCRF-CEM leukemia, in the test with NCI-H460 lung, in the test with HT29 colon, in the test with MOLT-4 leukemia and in the test on SN12C renal was over 100 µM each time. For the same compound, the TGI in the test on SF-295 CNS was over 100 µM.
As for `Cc1ccc(C2=Nn3c(nc4sc(C)c(C)c4c3=O)SC2)cc1`, the TGI in the test on RPMI-8226 leukemia, in the test with BT-549 breast, in the test on NCI/ADR-RES ovarian, with SNB-75 CNS, with OVCAR-3 ovarian and with UO-31 renal was over 100 µM throughout. Also, the TGI in the test on SR leukemia, in the test on HL-60(TB) leukemia, in the test with A549 NSCLC, in the test on MDA-N, in the test on HOP-62 NSCLC and with DU-145 prostate was over 100 µM each time. Besides, the TGI in the test on HOP-92 NSCLC, with NCI-H460 lung, with HT29 colon, with MOLT-4 leukemia, with SN12C renal and in the test on SF-295 CNS was over 100 µM throughout.
As for `CC12O[C@]3([C@H](C(=O)N4CCOC43C)[C@H]1Cl)[C@H]1O[C@H]12` (stereo not given in full), the TGI with RPMI-8226 leukemia, in the test on BT-549 breast, with NCI/ADR-RES ovarian, in the test with SNB-75 CNS, with OVCAR-3 ovarian and in the test with UO-31 renal was over 100 µM each time. The TGI with SR leukemia, in the test with HL-60(TB) leukemia, in the test on SNB-19 CNS, with A549 NSCLC, in the test with MDA-N and with HOP-62 NSCLC was over 100 µM throughout. The TGI in the test on DU-145 prostate, in the test on HOP-92 NSCLC, with NCI-H460 lung, in the test on HT29 colon, in the test on MOLT-4 leukemia and with SN12C renal was over 100 µM in each case. The compound further yielded a TGI in the test on SF-295 CNS of over 100 µM.
As to `O=c1c2ccccc2nc(-c2cc3c(cc2Cl)Sc2nccn2S3(=O)=O)n1-c1ccccc1`, the TGI in the test on RPMI-8226 leukemia was 48.5 µM; in the test on BT-549 breast, over 100 µM; with NCI/ADR-RES ovarian it was 46.8 µM; in the test with SNB-75 CNS, 52.2 µM; in the test on OVCAR-3 ovarian it was 29.4 µM; in the test with UO-31 renal, 31.7 µM. Also, the TGI was over 100 µM in the test on SR leukemia; 15.5 µM in the test with HL-60(TB) leukemia; over 100 µM with SNB-19 CNS; over 100 µM with A549 NSCLC; 33.8 µM with MDA-N; 35.7 µM with HOP-62 NSCLC. In addition, the TGI in the test with DU-145 prostate is 51.8 µM; in the test with HOP-92 NSCLC, 58.5 µM; in the test with NCI-H460 lung, over 100 µM; with HT29 colon, over 100 µM; with MOLT-4 leukemia, over 100 µM; with SN12C renal, over 100 µM. The same compound gave a TGI with SF-295 CNS of 52.9 µM.
With `C/C(=C(/C)c1ccc(O)cc1)c1ccc(O)cc1`, the TGI in the test with RPMI-8226 leukemia was 71.6 µM; with BT-549 breast it was over 100 µM; in the test on NCI/ADR-RES ovarian, over 100 µM; in the test on SNB-75 CNS, over 100 µM; with OVCAR-3 ovarian, over 100 µM; with UO-31 renal, over 100 µM. The TGI in the test on SR leukemia is 83.8 µM; with HL-60(TB) leukemia, 81.4 µM; in the test with SNB-19 CNS, over 100 µM; in the test with A549 NSCLC, over 100 µM; with MDA-N, over 100 µM; in the test with HOP-62 NSCLC it was over 100 µM. The TGI was over 100 µM in the test on DU-145 prostate; 91.6 µM in the test with HOP-92 NSCLC; over 100 µM in the test on CCRF-CEM leukemia; over 100 µM with NCI-H460 lung; over 100 µM with HT29 colon; over 100 µM with MOLT-4 leukemia. The same compound gave a TGI with SN12C renal of over 100 µM.
Consider `CC(=O)C1(Cc2cccc3ccccc23)S(=O)(=O)OCCOS1(=O)=O`, for which the TGI in the test on RPMI-8226 leukemia worked out at 47.2 µM; in the test with BT-549 breast, 30.6 µM; in the test on NCI/ADR-RES ovarian, 61.2 µM; in the test on SNB-75 CNS it was 65.4 µM; in the test with OVCAR-3 ovarian it was 36.4 µM; in the test on UO-31 renal it was 29.3 µM. The TGI in the test on SR leukemia was 44 µM; with HL-60(TB) leukemia it was 41.4 µM; in the test with SNB-19 CNS, 49.2 µM; with MDA-N, 24.6 µM; with HOP-62 NSCLC, 44.8 µM; in the test with DU-145 prostate, 42.2 µM. Also, the TGI was 48.4 µM in the test on HOP-92 NSCLC; over 100 µM in the test with CCRF-CEM leukemia; 34 µM with NCI-H460 lung; 37.4 µM in the test on HT29 colon; over 100 µM with MOLT-4 leukemia; 25 µM in the test with SN12C renal. Moreover, the TGI in the test with SF-295 CNS came to 20.5 µM.
As for `COC(=O)C(Cc1ccccc1)NP(=O)(O)OCC1OC(n2cc(Br)c(=O)[nH]c2=O)CC1O` (stereo not given), the TGI in the test with BT-549 breast, with NCI/ADR-RES ovarian, with SNB-75 CNS, in the test on OVCAR-3 ovarian, with UO-31 renal and in the test with SR leukemia was over 100 µM in each case. In addition, the TGI with HL-60(TB) leukemia, in the test with SNB-19 CNS, in the test with A549 NSCLC, with MDA-N, with HOP-62 NSCLC and with DU-145 prostate was over 100 µM in each case. The TGI with HOP-92 NSCLC, in the test with CCRF-CEM leukemia, in the test on NCI-H460 lung, in the test on HT29 colon, in the test on MOLT-4 leukemia and in the test with SN12C renal was over 100 µM each time. This compound yielded a TGI in the test on SF-295 CNS of over 100 µM.
Consider `CC(=O)N1C(OC(C)C)CC(C)N1c1ccccc1` (stereo not given), for which the TGI in the test with RPMI-8226 leukemia, in the test on BT-549 breast, with NCI/ADR-RES ovarian, in the test with SNB-75 CNS, with OVCAR-3 ovarian and in the test on SR leukemia was over 10 µM each time. For the same compound, the TGI in the test on HL-60(TB) leukemia, in the test on SNB-19 CNS, with A549 NSCLC, in the test with MDA-N, in the test with HOP-62 NSCLC and in the test on DU-145 prostate was over 10 µM in each case. For the same compound, the TGI with HOP-92 NSCLC, in the test with CCRF-CEM leukemia, in the test on NCI-H460 lung, with HT29 colon, with MOLT-4 leukemia and in the test on SN12C renal was over 10 µM throughout. Also, the TGI in the test with SF-295 CNS was over 10 µM.
